17 compounds from patent US4629737A, “Secondary amines and use in pharmaceutical compositions” (Beecham Group p.l.c., priority 1982, dated 1986) can be followed below.

Structures can show the parent of a compound that is named as a salt. Where two headings read alike, the source gives them in different places.

The test system of one assay is blood glucose. The assay is described as follows: Hypoglycaemic activity: reduction in area under blood glucose curve after glucose load. Type of assay: in vivo, Female CFLP mice. The following applies: Mus musculus. Here is the method:
Female CFLP mice, weighing approximately 25 g, were fasted for 24 hours prior to the study. The compounds under study were administered orally as an aqueous solution to each of 6 mice. 30 minutes later a blood sample (10 μl) was obtained from the tail for the analysis of blood glucose. Immediately after taking this blood sample, glucose (1 g/Kg body weight) was administered subcutaneously to each mouse. 6 mice were given water as a control. Blood samples were then obtained from each mouse at 30 minute intervals for 120 minutes.
Compounds that produced a significant (P<0.05) reduction of blood glucose, compared with control mice given water, at any time interval, were considered active. The area under the blood glucose curve over the 2 hour period after the administration of the glucose was calculated for each compound and compared with the value for control animals.

Assay [1] can be described thus: Effect on energy expenditure of mice. The assay is classed as in vivo, Female CFLP mice. Conditions: Mus musculus; for response vs control in vivo at 8.5 mg/kg: 8.5 mg/kg po. Here is the method:
Female CFLP mice, each weighing approximately 24 g were given food and water ad lib before and during the experiment. The compounds were dissolved in water by addition of one mole of hydrochloric acid per mole of compound and these solutions were administered orally to each of 12 mice. A further 12 mice were dosed orally with water. The mice were placed in boxes through which air was drawn and the oxygen content of the air leaving the boxes was measured. The energy expenditure of the mice was calculated for 21 hours after dosing from the volume of air leaving the boxes and its oxygen content, following the principles described by J. B. de V. Weir, J. Physiol. (London), 109, 1-9 (1949).

In the next assay the test system is right atrium. The assay is described as follows: Isolated rat atria screen: rate of spontaneously beating right atrium. On the set-up: species or system Sprague-Dawley male rats. Conditions: maximal effect relative to isoprenaline maximum (=1), read-out: Rate i.a. (intrinsic activity). Here is the method:
(§1) Sprague-Dawley male rats (300-400 g) are killed and the right and left atria dissected out independently and mounted on a combined tissue holder/electrode. The tissues are then immersed in a glass bath containing Krebs solution maintained at 32° C. The rate of the spontaneously beating right atrium (via an isometric transducer and a ratemeter) and the tension of the electrically paced left atrium (via an isometric transducer) are recorded on an M19 chart recorder.
(§2) After an initial stabilization period, the tissues are exposed to a maximal concentration of isoprenaline (10^-7 M). The tissues are then washed several times until rate and tension return to baseline level. A dose-response curve to the test compound is then carried out.
(§3) Responses to each concentration of test compound are expressed as a percentage of the maximal responses to isoprenaline. Results are given in the form of (a) intrinsic activity (i.a.) (maximal effect of test compound with respect to isoprenaline maximum, i.e. isoprenaline intrinsic activity=1) and (b) EC50 (the molar concentration at which the test compound produces 50% of its own maximum response).

The next assay has as its system left atrium. Nature of the assay: Isolated rat atria screen: tension of electrically paced left atrium. The following applies: maximal effect relative to isoprenaline maximum (=1), read-out: Tension i.a. (intrinsic activity). On the set-up: species or system Sprague-Dawley male rats. Here is the method: as §1, §2, §3
Setting [2] is: po, 2 h, read-out: % Reduction in area under Blood Glucose Curve.
Where [3] appears, read: po, 3 h, read-out: Mean Energy Expenditure (0-3 h).
[4] abbreviates: po, 21 h, read-out: Mean Energy Expenditure (0-21 h).
[5] abbreviates: 2.5 μmol/Kg oral, 2 h after glucose 1 g/Kg s.c., vs control, read-out: % Reduction in area under Blood Glucose Curve.

As to `CNCCOc1ccc(CC(C)NCC(OC)c2cccc(Cl)c2)cc1` (centres unmarked) [Example 6, N-[2-(4-(2-Methylaminoethoxy)phenyl)-1-methylethyl]-2-methoxy-2-(3-chlorophenyl)ethanamine dihydrochloride], the inhibition in vivo at 12.5 µmol/kg with blood glucose (setting [2]) was 55%. Further, the figures for the response vs control in vivo at 22.5 mg/kg in assay [1] (setting [3]) and in assay [1] (setting [4]) were 154% and 126%, respectively. Further, the Emax in the assay with right atrium and with left atrium was 0% each time.

With `COC(CNC(C)Cc1ccc(N(C)C)cc1)c1cccc(Cl)c1` (centres unmarked) [Example 41, N-[2-(4-Dimethylaminophenyl)-1-methylethyl]-2-methoxy-2-(3-chlorophenyl)ethanamine dihydrochloride hemihydrate], the inhibition in vivo at 12.5 µmol/kg in the assay on blood glucose (setting [2]) came out at 45%. The response vs control in vivo at 21.4 mg/kg turned out to be 107% in assay [1] (setting [3]) and 116% in assay [1] (setting [4]).

For `CCCCOC(CNC(C)Cc1ccc(OCC(=O)OC)cc1)c1cccc(Cl)c1` (centres unmarked) [Example 42, N-[2-(4-Carbomethoxymethoxyphenyl)-1-methylethyl]-2-^n butoxy-2-(3-chlorophenyl)ethanamine hydrochloride], in the assay with blood glucose (5 μmol/Kg oral, 2 h after glucose 1 g/Kg s.c., vs control, read-out: % Reduction in area under Blood Glucose Curve), the inhibition in vivo at 5 µmol/kg was 37%. For the same compound, the response vs control in vivo at 23.5 mg/kg was 114% in assay [1] (setting [4]) and 158% in assay [1] (23.5 mg/kg po, 0-3 h, read-out: Mean Energy Expenditure (0-3 h)).

As for `CCCCOC(CNC(C)Cc1ccc(OCC(=O)NC)cc1)c1cccc(Cl)c1` (centres unmarked) [Example 43, N-[2-(4-Methylaminocarbonylmethoxyphenyl)-1-methylethyl]-2-^n butoxy-2-(3-chlorophenyl)ethanamine hydrochloride hemihydrate], the inhibition in vivo at 2.5 µmol/kg in the assay with blood glucose (setting [5]) turned out to be 31%. The response vs control in vivo at 24.2 mg/kg in assay [1] (24.2 mg/kg po, 0-3 h, read-out: Mean Energy Expenditure (0-3 h)) came to 144%; in assay [1] (24.2 mg/kg po, 0-21 h, read-out: Mean Energy Expenditure (0-21 h)), 105%.

Compound `CCCCCCOC(CNC(C)Cc1ccc(OCC(=O)OC)cc1)c1cccc(Cl)c1` (centres unmarked) [Example 44, N-[2-(4-Carbomethoxymethoxyphenyl)-1-methylethyl]-2-^n hexyloxy-2-(3-chlorophenyl)ethanamine hydrochloride] showed an inhibition in vivo at 7.5 µmol/kg in the assay with blood glucose (7.5 μmol/Kg oral, 2 h after glucose 1 g/Kg s.c., vs control) of 34%. The response vs control in vivo at 24.9 mg/kg in assay [1] (setting [3]) turned out to be 145%; in assay [1] (24.9 mg/kg po, 0-21 h, read-out: Mean Energy Expenditure (0-21 h)), 101%.

On to `CNCCOc1ccc(CC(C)NCC(OC)c2cccc(C(F)(F)F)c2)cc1` (centres unmarked) [Example 46, N-[2-(4-(2-Methylaminoethoxy)phenyl)-1-methylethyl]-2-methoxy-2-(3-trifluoromethylphenyl)ethanamine dihydrochloride], for which the inhibition in vivo at 5 µmol/kg in the assay on blood glucose (setting [2]) stood at 20%. The response vs control in vivo at 24.2 mg/kg in assay [1] (setting [3]) was 122%; in assay [1] (setting [4]), 104%.

Consider `COC(=O)/C=C/c1ccc(CC(C)NCC(OC)c2cccc(Cl)c2)cc1` (centres unmarked) [Example 47, N-[2-(4-{[E]-2-Carbomethoxyethenyl}phenyl)-1-methylethyl]-2-methoxy-2-(3-chlorophenyl)ethanamine hydrochloride], for which the inhibition in vivo at 12.5 µmol/kg in the assay with blood glucose (setting [2]) is 41%. Further, the response vs control in vivo at 21.3 mg/kg in assay [1] (setting [3]) amounted to 130%; in assay [1] (setting [4]), 109%.

Turning to `COC(CNC(C)Cc1ccc(OCCO)cc1)c1cccc(Cl)c1` (centres unmarked) [Example 48, N-[2-{4-(2-Hydroxyethoxy)phenyl}-1-methylethyl]-2-methoxy-2-(3-chlorophenyl)ethanamine hydrobromide], in the assay with blood glucose (setting [2]), the inhibition in vivo at 0.5 µmol/kg was found to be 31%. Moreover, the response vs control in vivo at 22.2 mg/kg in assay [1] (setting [3]) was determined as 128%; in assay [1] (setting [4]), 131%.

Turning to `COC(=O)Cc1ccc(CC(C)NCC(OC)c2cccc(Cl)c2)cc1` (centres unmarked) [Example 49, N-[2-(4-Carbomethoxymethylphenyl)-1-methylethyl]-2-methoxy-2-(3-chlorophenyl)ethanamine hydrochloride], the inhibition in vivo at 12.5 µmol/kg in the assay on blood glucose (setting [2]) turned out to be 47%. For the same compound, the response vs control in vivo at 20.6 mg/kg in assay [1] (setting [3]) amounted to 131%; in assay [1] (setting [4]), 135%.

As to `COC(=O)COc1ccc(CC(C)NCC(OCc2ccccc2)c2cccc(Cl)c2)cc1` (centres unmarked) [Example 50, N-[2-(4-Carbomethoxymethoxyphenyl)-1-methylethyl]-2-benzyloxy-2-(3-chlorophenyl)ethanamine hydrochloride], in the assay on blood glucose (setting [2]), the inhibition in vivo at 2.5 µmol/kg was found to be 41%. For the same compound, the response vs control in vivo at 24.6 mg/kg amounted to 142% in assay [1] (setting [3]) and 116% in assay [1] (setting [4]).

Consider `CNC(=O)COc1ccc(CCNCC(OC)c2cccc(Cl)c2)cc1` (centres unmarked) [Example 51, N-[2-(4-Methylaminocarbonylmethoxyphenyl)ethyl]-2-methoxy-2-(3-chlorophenyl)ethanamine hydrochloride], for which the inhibition in vivo at 12.5 µmol/kg in the assay with blood glucose (12.5 μmol/Kg oral, 2 h after glucose 1 g/Kg s.c., vs control, read-out: % Reduction in area under Blood Glucose Curve) was 45%. Further, the response vs control in vivo at 20.7 mg/kg in assay [1] (setting [4]) is 108%; in assay [1] (20.7 mg/kg po, 0-3 h, read-out: Mean Energy Expenditure (0-3 h)), 128%.

With `CNC(=O)COc1ccc(CC(C)NCC(COc2ccccc2)OC)cc1` (centres unmarked) [Example 52, N-[2-(4-Methylaminocarbonylmethoxyphenyl)-1-methylethyl]-2-methoxy-3-phenoxypropanamine hydrochloride], in the assay with blood glucose (setting [2]), the inhibition in vivo at 12.5 µmol/kg is 35%. In addition, the response vs control in vivo at 21.1 mg/kg in assay [1] (setting [3]) is 130%; in assay [1] (setting [4]) it was 113%.

On to `CNC(=O)COc1ccc(CC(C)NCC(OC)c2ccccc2F)cc1` (centres unmarked) [Example 55, N-[2-(4-Methylaminocarbonylmethoxyphenyl)-1-methylethyl]-2-methoxy-2-(2-fluorophenyl)ethanamine hydrochloride], for which, in the assay on blood glucose (setting [2]), the inhibition in vivo at 12.5 µmol/kg was determined as 42%. Further, the values for the response vs control in vivo at 20.6 mg/kg in assay [1] (setting [3]) and in assay [1] (setting [4]) were 150% and 121%, respectively.

With `CNC(=O)COc1ccc(CC(C)NCC(OC)c2cccc(C)c2)cc1` (centres unmarked) [Example 56, N-[2-(4-Methylaminocarbonylmethoxyphenyl)-1-methylethyl]-2-methoxy-2-(3-methylphenyl)ethanamine hydrochloride], the inhibition in vivo at 12.5 µmol/kg in the assay on blood glucose (setting [2]) stood at 40%. Further, the response vs control in vivo at 20.4 mg/kg in assay [1] (setting [3]) was found to be 148%; in assay [1] (setting [4]) it was 108%.

Regarding `COC(CNC(C)Cc1ccc(OCCOc2ccccc2)cc1)c1cccc(Cl)c1` (centres unmarked) [Example 57, N-[2-(4-(2-Phenoxyethoxy)phenyl)-1-methylethyl]-2-methoxy-2-(3-chlorophenyl)ethanamine hydrochloride], the inhibition in vivo at 2.5 µmol/kg with blood glucose (setting [2]) turned out to be 28%. Besides, the values for the response vs control in vivo at 23.8 mg/kg in assay [1] (setting [3]) and in assay [1] (setting [4]) were 178% and 123%, respectively.

With `COC(=O)CN(C)c1ccc(CC(C)NCC(OC)c2ccccc2)cc1` (centres unmarked) [Example 58, N-[2-(4-N'-Methyl-N'-carbomethoxymethylaminophenyl)-1-methylethyl]-2-methoxy-2-phenylethanamine dihydrochloride], in the assay with blood glucose (setting [5]), the inhibition in vivo at 2.5 µmol/kg was determined as 17%. Also, the response vs control in vivo at 22.1 mg/kg in assay [1] (setting [4]) stood at 108%; in assay [1] (22.1 mg/kg po, 0-3 h, read-out: Mean Energy Expenditure (0-3 h)) it was 131%.

Consider `CNCCOc1ccc(C[C@@H](C)NC[C@H](OC)c2ccccc2)cc1` [Example 59, N-[2-(4-(2-Methylaminoethoxy)phenyl)-1-(R)-1-methylethyl]-2-(R)-2-methoxy-2-phenylethanamine dihydrochloride hemihydrate], for which, in the assay on blood glucose (25 μmol/Kg oral, 2 h after glucose 1 g/Kg s.c., vs control, read-out: % Reduction in area under Blood Glucose Curve), the inhibition in vivo at 25 µmol/kg is 36%. For the same compound, the response vs control in vivo at 8.5 mg/kg is 148% in assay [1] (0-3 h, read-out: Mean Energy Expenditure (0-3 h)) and 111% in assay [1] (0-21 h, read-out: Mean Energy Expenditure (0-21 h)).
